Laboratory results as given in patent US9273040B2 (Merck Sharp & Dohme Corp., priority 2011, dated 2016).

Experiments:
Assay type in all cases: cell-based
[1] = molecular target: T1, human Nav1.7 channels stably expressed in HEK 293 cells (Homo sapiens, UniProt Q15858); test: IonWorks Quattro automated patch-clamp, sodium current, inactivated state block; conditions: read-out: potency for the Nav 1.7 sodium ion channel (as measured by IonWorks)
T1 construct: expressed in transfected cells
Protocol: (§1) Compounds were tested on human Nav1.7 and Nav1.5 channels stably expressed in HEK 293 cells. […] Cells were sealed on a planar substrate using the Population Patch Plate (PPC) technology. Electrical access was obtained using both nystatin and amphotericin. A double-pulse protocol was used for the determination of IC50 values for inactivated state block. Nav1.7 and Nav1.5 expressing cells were voltage clamped at −100 mV and −110 mV, respectively. A depolarizing prepulse to −10 mV (Nav1.7) or −30 mV (Nav1.5) for 1000 ms followed by a 10 ms repolarization to −100 mV (Nav1.7) or −110 mV (Nav1.5) was given to generate fractional channel inactivation of ˜50%, followed by a 10 ms test pulse to −10 mV (Nav1.7) or −30 mV (Nav1.5) to measure peak current in control conditions and after compound addition. The following recording solutions were used (mM). External: 150 NaCl, 2 CaCl2, 5 KCl, 1 Mg Cl2, 10 HEPES, 12 Dextrose; internal: 120 CsF, 30 CsCl, 10 EGTA, 5 HEPES, 5 NaF, 2 MgCl2.
(§2) For all electrophysiology experiments, offline analysis was used to correct for current rundown and to determine percent inhibition as a function of drug concentration. IC50 values were determined by fitting to the Hill equation.

[2] = molecular target: T2, human Nav1.5 channels stably expressed in HEK 293 cells (Homo sapiens, UniProt Q14524); test: as above; conditions: selectivity over Nav1.5
T2 construct: expressed in transfected cells
Protocol: as §1, §2

[3] = molecular target: T1, human Nav1.7 channels stably expressed in HEK 293 cells; test: PatchXpress 7000 automated patch-clamp, sodium current; conditions: 22° C., read-out: potency for the Nav 1.7 sodium ion channel (as measured by PatchXpress)
Procedure, shortened: (§3)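 IC50 values came from Hill-equation fits of rundown-corrected inhibition. PatchXpress recordings at 22° C held cells 20 mV negative to V0.5 inact and applied 10 Hz trains of 30 ms steps to −20 mV (Nav1.7) or an 8000 ms prepulse 7 mV positive to V0.5 inact. […]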

[4] = molecular target: T2, human Nav1.5 channels stably expressed in HEK 293 cells; test: as above; conditions: selectivity over Nav1.5
Procedure, shortened: as §3

T1 sequence (Q15858 whole entry): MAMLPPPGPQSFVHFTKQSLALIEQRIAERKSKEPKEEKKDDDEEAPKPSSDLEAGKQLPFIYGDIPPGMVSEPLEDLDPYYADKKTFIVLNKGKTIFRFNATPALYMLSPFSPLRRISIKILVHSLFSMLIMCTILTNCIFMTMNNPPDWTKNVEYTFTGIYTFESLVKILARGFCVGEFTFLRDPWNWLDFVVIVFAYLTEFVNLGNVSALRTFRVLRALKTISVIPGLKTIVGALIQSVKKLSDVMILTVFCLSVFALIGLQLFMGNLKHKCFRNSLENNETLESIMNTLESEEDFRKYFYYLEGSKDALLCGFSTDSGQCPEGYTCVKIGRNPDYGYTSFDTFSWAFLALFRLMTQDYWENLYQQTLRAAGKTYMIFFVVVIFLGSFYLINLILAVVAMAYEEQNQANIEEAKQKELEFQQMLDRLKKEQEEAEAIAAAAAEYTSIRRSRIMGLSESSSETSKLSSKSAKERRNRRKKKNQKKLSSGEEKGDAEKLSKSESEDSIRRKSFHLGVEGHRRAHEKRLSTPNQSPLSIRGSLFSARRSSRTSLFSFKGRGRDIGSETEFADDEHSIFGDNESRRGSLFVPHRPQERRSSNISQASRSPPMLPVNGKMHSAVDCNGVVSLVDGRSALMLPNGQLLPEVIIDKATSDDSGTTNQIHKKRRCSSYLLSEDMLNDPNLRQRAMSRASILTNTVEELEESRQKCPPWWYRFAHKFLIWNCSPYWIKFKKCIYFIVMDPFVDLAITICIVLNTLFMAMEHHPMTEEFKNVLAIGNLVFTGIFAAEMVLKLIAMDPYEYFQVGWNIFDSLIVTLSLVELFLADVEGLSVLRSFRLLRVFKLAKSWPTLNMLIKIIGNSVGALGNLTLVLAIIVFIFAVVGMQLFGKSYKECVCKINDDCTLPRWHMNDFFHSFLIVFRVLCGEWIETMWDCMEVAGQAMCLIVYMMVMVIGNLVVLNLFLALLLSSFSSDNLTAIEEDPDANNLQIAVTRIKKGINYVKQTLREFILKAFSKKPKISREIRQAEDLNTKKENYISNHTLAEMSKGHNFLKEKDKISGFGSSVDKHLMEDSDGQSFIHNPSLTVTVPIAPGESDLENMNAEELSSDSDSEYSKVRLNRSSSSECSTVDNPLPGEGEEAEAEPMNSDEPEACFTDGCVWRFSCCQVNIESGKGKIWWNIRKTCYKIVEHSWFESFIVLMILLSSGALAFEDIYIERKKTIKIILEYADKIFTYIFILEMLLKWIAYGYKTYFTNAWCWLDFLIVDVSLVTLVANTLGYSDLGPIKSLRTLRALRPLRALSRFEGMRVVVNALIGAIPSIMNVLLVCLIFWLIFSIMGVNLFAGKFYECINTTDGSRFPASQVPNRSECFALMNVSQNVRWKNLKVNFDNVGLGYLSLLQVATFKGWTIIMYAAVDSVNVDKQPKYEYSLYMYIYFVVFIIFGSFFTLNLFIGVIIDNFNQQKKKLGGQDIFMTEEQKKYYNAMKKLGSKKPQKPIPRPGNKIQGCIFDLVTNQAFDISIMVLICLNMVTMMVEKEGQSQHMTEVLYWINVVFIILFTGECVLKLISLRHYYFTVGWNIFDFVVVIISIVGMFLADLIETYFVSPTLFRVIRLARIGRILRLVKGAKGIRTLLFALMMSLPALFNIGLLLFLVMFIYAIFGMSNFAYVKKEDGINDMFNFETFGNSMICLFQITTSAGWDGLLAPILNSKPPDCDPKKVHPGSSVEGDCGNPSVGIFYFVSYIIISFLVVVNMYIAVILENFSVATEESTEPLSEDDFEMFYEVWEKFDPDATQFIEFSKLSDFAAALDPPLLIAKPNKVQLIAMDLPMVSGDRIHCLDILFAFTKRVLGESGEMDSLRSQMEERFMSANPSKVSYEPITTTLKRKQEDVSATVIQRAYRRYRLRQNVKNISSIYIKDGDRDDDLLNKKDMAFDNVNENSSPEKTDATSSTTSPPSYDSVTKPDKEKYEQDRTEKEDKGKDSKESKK
T2 sequence (Q14524 whole entry): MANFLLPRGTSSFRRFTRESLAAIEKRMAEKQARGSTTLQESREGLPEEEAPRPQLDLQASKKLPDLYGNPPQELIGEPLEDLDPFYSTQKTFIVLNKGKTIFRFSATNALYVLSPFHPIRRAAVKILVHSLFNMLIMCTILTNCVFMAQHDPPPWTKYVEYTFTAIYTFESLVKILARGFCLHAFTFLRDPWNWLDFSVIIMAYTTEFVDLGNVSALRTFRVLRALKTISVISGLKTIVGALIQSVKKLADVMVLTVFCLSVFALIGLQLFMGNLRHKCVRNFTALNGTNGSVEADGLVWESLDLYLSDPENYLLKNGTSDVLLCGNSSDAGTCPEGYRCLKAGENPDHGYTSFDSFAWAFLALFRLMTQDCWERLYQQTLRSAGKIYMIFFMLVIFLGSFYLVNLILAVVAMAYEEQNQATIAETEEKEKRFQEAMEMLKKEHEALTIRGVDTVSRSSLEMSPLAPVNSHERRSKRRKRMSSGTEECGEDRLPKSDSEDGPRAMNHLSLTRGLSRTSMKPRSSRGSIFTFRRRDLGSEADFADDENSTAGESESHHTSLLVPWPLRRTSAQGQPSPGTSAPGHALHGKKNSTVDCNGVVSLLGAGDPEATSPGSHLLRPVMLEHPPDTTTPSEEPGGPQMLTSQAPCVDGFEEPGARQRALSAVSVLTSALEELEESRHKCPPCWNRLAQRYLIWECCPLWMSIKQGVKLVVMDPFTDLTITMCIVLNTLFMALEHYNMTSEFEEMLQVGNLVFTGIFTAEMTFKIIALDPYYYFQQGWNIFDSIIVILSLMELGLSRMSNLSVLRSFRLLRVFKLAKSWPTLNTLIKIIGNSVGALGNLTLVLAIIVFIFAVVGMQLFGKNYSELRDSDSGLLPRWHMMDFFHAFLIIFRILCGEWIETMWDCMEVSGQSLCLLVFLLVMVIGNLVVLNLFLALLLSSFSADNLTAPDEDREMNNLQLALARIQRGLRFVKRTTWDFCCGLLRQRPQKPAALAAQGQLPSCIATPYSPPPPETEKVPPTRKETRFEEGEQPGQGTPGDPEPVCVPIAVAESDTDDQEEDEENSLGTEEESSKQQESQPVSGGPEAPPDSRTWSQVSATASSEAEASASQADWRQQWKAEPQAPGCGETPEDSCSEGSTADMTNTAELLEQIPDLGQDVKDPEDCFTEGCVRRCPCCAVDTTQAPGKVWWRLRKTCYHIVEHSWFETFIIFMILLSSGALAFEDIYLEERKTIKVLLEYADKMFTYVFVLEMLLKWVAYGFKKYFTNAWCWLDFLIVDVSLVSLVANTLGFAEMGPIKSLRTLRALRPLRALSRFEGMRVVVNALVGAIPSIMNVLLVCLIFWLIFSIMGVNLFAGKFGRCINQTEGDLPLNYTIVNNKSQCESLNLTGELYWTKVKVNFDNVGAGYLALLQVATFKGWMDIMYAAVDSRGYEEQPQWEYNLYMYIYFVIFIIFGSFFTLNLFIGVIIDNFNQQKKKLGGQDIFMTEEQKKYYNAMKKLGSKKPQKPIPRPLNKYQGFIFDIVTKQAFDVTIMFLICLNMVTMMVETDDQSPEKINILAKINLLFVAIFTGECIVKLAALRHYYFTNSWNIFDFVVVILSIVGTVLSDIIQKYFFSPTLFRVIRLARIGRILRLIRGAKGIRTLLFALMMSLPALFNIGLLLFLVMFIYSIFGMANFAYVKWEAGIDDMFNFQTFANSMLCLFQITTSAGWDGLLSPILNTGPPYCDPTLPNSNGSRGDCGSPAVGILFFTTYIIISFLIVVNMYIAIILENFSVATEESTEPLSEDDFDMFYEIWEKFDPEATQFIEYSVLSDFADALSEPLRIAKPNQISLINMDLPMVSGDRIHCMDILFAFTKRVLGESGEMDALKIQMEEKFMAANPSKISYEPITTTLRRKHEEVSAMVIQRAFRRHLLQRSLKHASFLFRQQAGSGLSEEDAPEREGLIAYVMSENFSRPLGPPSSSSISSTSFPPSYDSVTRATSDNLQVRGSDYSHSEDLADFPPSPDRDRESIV

Structure (SMILES)	IC50 [1] [nM]	ratio of Nav 1.5:Nav 1.7 potency, determined by IonWorks measurement [2]	IC50 [3] [nM]	ratio of Nav 1.5:Nav 1.7 potency, determined by PatchXpress measurement [4]
C[C@@H](c1ccccc1)n1c(=O)oc2cc(S(=O)(=O)Nc3ncns3)c(F)cc21 [Compound 13-4, 5-fluoro-2-oxo-3-[(1S)-1-phenylethyl]-N-1,2,4-thiadiazol-5-yl-2,3-dihydro-1,3-benzoxazole-6-sulfonamide]	157	78	167	27
O=c1oc2cc(S(=O)(=O)Nc3ncns3)ccc2n1Cc1ccccc1Cl [Compound 1-12, 3-(2-chlorobenzyl)-2-oxo-N-1,2,4-thiadiazol-5-yl-2,3-dihydro-1,3-benzoxazole-6-sulfonamide]	408	67	408	67
O=c1oc2cc(S(=O)(=O)Nc3ncns3)ccc2n1Cc1cccc(Cl)c1 [Compound 1-11, 3-(3-chlorobenzyl)-2-oxo-N-1,2,4-thiadiazol-5-yl-2,3-dihydro-1,3-benzoxazole-6-sulfonamide]	360	59	360	59
O=c1oc2cc(S(=O)(=O)Nc3ncns3)c(F)cc2n1Cc1cccc2c1CNCC2 [Compound 11-5, 5-Fluoro-2-oxo-3-(1,2,3,4-tetrahydroisoquinolin-8-ylmethyl)-N-(1,2,4-thiadiazol-5-yl)-2,3-dihydro-1,3-benzoxazole-6-sulfonamide]	101	182	69	139
CC(c1cccc2c1CNCC2)n1c(=O)oc2cc(S(=O)(=O)Nc3ncns3)ccc21 (centres unmarked) [Compound 4-14, 2-oxo-3-[1-(1,2,3,4-tetrahydroisoquinolin-8-yl)ethyl]-N-1,2,4-thiadiazol-5-yl-2,3-dihydro-1,3-benzoxazole-6-sulfonamide]	25	> 1338	61	> 495
C[C@@H](c1cccc2c1CNCC2)n1c(=O)oc2cc(S(=O)(=O)Nc3ncns3)ccc21 [Compound 4-15, 2-oxo-3-[(1S)-1-(1,2,3,4-tetrahydroisoquinolin-8-yl)ethyl]-N-1,2,4-thiadiazol-5-yl-2,3-dihydro-1,3-benzoxazole-6-sulfonamide]	73	> 451	343	> 87
C[C@H](c1ccccc1)n1c(=O)oc2cc(S(=O)(=O)Nc3ncns3)ccc21 [Compound 4-7, 2-oxo-3-[(1R)-1-phenylethyl]-N-1,2,4-thiadiazol-5-yl-2,3-dihydro-1,3-benzoxazole-6-sulfonamide]	670	28	74	287
O=c1oc2cc(S(=O)(=O)Nc3ncns3)ccc2n1Cc1ccccc1 [Compound 1-10, 3-benzyl-2-oxo-N-1,2,4-thiadiazol-5-yl-2,3-dihydro-1,3-benzoxazole-6-sulfonamide]	803	> 41	486	> 62
CN1CCc2cccc(Cn3c(=O)oc4cc(S(=O)(=O)Nc5ncns5)ccc43)c2C1 [Compound 6-1, 3-[(2-Methyl-1,2,3,4-tetrahydroisoquinolin-8-yl)methyl]-2-oxo-N-(1,2,4-thiadiazol-5-yl)-2,3-dihydro-1,3-benzoxazole-6-sulfonamide]	366	88	869	> 35
O=c1oc2cc(S(=O)(=O)Nc3ncns3)ccc2n1Cc1ccccc1-c1cccc2c1CCNC2 [Compound 3-8, 2-oxo-3-[2-(1,2,3,4-tetrahydroisoquinolin-5-yl)benzyl]-N-1,2,4-thiadiazol-5-yl-2,3-dihydro-1,3-benzoxazole-6-sulfonamide]	321	> 103	278	> 108
CC(c1ccccc1)n1c(=O)oc2cc(S(=O)(=O)Nc3ncns3)ccc21 (centres unmarked) [Compound 4-6, 2-oxo-3-(1-phenylethyl)-N-1,2,4-thiadiazol-5-yl-2,3-dihydro-1,3-benzoxazole-6-sulfonamide]	954	> 35	342	> 88
NCc1ccccc1Cn1c(=O)oc2cc(S(=O)(=O)Nc3ncns3)ccc21 [Compound 1-14, 3-[2-(aminomethyl)benzyl]-2-oxo-N-1,2,4-thiadiazol-5-yl-2,3-dihydro-1,3-benzoxazole-6-sulfonamide]	265	> 125	365	45
NC/C=C/c1ccccc1Cn1c(=O)oc2cc(S(=O)(=O)Nc3ncns3)ccc21 [Compound 3-3, 3-{2-[(1E)-3-Aminoprop-1-en-1-yl]benzyl}-2-oxo-N-(1,2,4-thiadiazol-5-yl)-2,3-dihydro-1,3-benzoxazole-6-sulfonamide]	216	65	336	> 89
C[C@@H](c1cccc2c1CNCC2)n1c(=O)oc2cc(S(=O)(=O)Nc3ncns3)c(F)cc21 [Compound 11-6, 5-fluoro-2-oxo-3-[(1S)-1-(1,2,3,4-tetrahydroisoquinolin-8-yl)ethyl]-N-1,2,4-thiadiazol-5-yl-2,3-dihydro-1,3-benzoxazole-6-sulfonamide]	576	57	322	> 93
